Measured values taken from publication PMC8510290, “Fishing of α-Glucosidase’s Ligands from Aloe vera by α-Glucosidase Functionalized Magnetic Nanoparticles” (Molecules, 2021).

Target: T1, α-glucosidase (Saccharomyces cerevisiae, UniProt P53341)
T1 construct: gene MAL12
Experiment: p-NPG hydrolysis assay (activation, maximal effect ratio) with purified enzyme; also fished out by enzyme-immobilized magnetic nanoparticles
Assay type: biochemical

T1 sequence (P53341 whole entry): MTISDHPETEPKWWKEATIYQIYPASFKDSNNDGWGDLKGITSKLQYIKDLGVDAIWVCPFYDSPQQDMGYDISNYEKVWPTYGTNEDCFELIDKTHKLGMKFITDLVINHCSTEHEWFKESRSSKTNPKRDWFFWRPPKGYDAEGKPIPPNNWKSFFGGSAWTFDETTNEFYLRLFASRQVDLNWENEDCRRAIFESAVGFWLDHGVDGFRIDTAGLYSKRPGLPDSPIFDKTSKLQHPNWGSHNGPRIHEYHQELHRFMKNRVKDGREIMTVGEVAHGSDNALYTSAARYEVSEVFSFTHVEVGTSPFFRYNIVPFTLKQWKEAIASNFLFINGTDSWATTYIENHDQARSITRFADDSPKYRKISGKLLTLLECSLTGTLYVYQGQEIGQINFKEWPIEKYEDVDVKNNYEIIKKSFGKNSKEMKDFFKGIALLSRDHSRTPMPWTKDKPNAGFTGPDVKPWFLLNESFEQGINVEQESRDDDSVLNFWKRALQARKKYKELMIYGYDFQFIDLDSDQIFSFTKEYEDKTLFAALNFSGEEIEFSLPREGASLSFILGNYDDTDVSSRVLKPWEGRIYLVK

| SMILES | Emax [%] |
| --- | --- |
| COc1cc(-c2c(C)cc(O)cc2O)oc(=O)c1 [compound 1, aloenin aglycone] | 26.4 ± 0.8 |
| CC(=O)c1c(C[C@@H]2Cc3cc(O)cc(O)c3C(=O)O2)cc(O)cc1O[C@@H]1O[C@H](CO)[C@@H](O)[C@H](OC(=O)/C=C/c2ccc(O)cc2)[C@H]1O [compound 2, aloeacone] | 17.8 ± 0.3 |
